In PMC8021118, “Shared recognition of citrullinated tenascin-C peptides by T and B cells in rheumatoid arthritis” (JCI Insight, 2021):
Where “and” joins values, the source holds several entries; their conditions need not be identical. Identical values can stand only once. Where a SMILES comes first, the peptide text is derived from it. Where no end group is shown, it is not given here. [ ]: non-standard residue; d: D form. Cit = NC(=O)NCCC[C@H](N)C(=O)O

Assays:
[1] = test system: serum IgG antibodies of RA subjects; assay: ELISA for serum antibodies against peptide; format: binding, human; settings: Cys-flanked ELISA peptides
Protocol: (§1) ELISAs were used to detect antibodies against citrullinated peptides in sera from patients in Autoantibody Cohorts 1 and 2 (Supplemental Table 2). Peptides used in the assay were synthesized by either GenScript or Pepceutical and are described in Supplemental Table 5. The ELISAs were conducted as previously described ([18], [26]). In brief, 96-well Nunc Maxisorp plates were coated with 10 μg/mL peptide in PBS, blocked with 2% BSA, and incubated with sera diluted 1:100. Bound antibodies were detected with an HRP-conjugated anti–human IgG Fc monoclonal antibody (6043HRP, Stratech). A standard curve of positive sera was used to calculate relative antibody titers in arbitrary units (AU) for each sample. The CCP2 ELISA for Autoantibody Cohort 1 was performed as by the manufacturer’s instruction (FCCP600, Axis-Shield). Cross-reactivity to cit-TNC56, cit-TNC17, or cit-TNC5 was analyzed in human sera reactive to cit-TNC56 or cit-TNC17. Sera were diluted 1:100, incubated with 1, 10, and 100 μg/mL of peptides for 2 hours and centrifuged at 10,000g for 10 minutes at room temperature, and the supernatant was added to peptide-coated plates for analysis by ELISA as described above. Positivity was defined by the cut-off of the 98th percentile of HC samples from Autoantibody Cohort 1.

[2] = test system: anti-cit-TNC antibodies in double-reactive RA sera; assay: Cross-reactivity (peptide absorption/inhibition) ELISA; format: binding, human; settings: for Absorption by the homologous peptide (in words): sera double-reactive for cit-TNC17 and cit-TNC56
Protocol: Sera that were double-reactive with peptides cit-TNC17 or cit-TNC56 and cit-TNC56, cit-TNC17, or cit-TNC5 were diluted 1:100, incubated with 1, 10, and 100 μg/mL of peptides for 2 hours and centrifuged at 10,000g for 10 minutes, and the supernatant then added to peptide-coated plates for analysis by ELISA. […] (B) Limited cross-reactivity between anti–cit-TNC56 and both anti–cit-TNC17 and anti–cit-TNC5. Each panel was run on a separate plate.
as §1

[3] = test system: Synovial fluid mononuclear cells (SFMC) from HLA-DRB1*04:01 RA patients; assay: FluoroSpot cytokine secretion by synovial fluid mononuclear cells stimulated with peptide; format: cell-based, human; settings: for IFN-γ secretion by SFMC (in words): 20 μg/mL peptide, 48 hours, 3-color FluoroSpot, RA n = 7, 15-mer T cell peptides; for IL-17 production by SFMC (in words) / IL-10 production by SFMC (in words): peptide stimulation 48 hours, three-color fluorospot, RA n=7
[4] = test system: CD4+ T cells in PBMC from HLA-DRB1*04:01+ subjects; assay: In vitro expansion of peptide-specific CD4+ T cells from PBMC and HLA class II tetramer staining; format: cell-based, human; settings: for Responders (% in RA): RA subjects with positive in vitro response (>0.1% of CD4+ T cells tetramer+) of total tested, 10 μg/mL peptide, 14 days, n = 14, TNC44 and TNC59 n = 6; for Immunogenicity: Supplemental Table 1, ability to elicit an immune response in vitro (tetramer staining after expansion)
From the text: TNC is a large protein (2110 amino acids in length) composed of an N-terminal assembly domain, 14.5 epidermal growth factor–like repeats (EGF-L), 8 constant fibronectin type III–like repeats (FNIII), and an additional 9 alternatively spliced FNIII elements, and a C-terminal fibrinogen-like globe (FBG) ([16]). Using a previously described algorithm ([9], [24]), we scanned the entire length of the TNC monomer and identified 64 arg-containing peptides with motifs that would predict to permit binding to HLA-DRB1*04:01 in either their noncitrullinated native form, citrullinated form, or both. Based on these predictions, we synthesized the citrullinated versions of these peptides and tested their ability to bind HLA-DRB1*04:01 and to elicit CD4^+ T cell expansion in vitro. Of the peptides synthesized, 8 cit-TNC peptides bound to HLA-DRB1*04:01 with moderate to high affinity (Table 1). Among these, cit-TNC17, cit-TNC22, cit-TNC45, cit-TNC50, and cit-TNC56 were determined to be the most immunogenic, based on their ability to drive epitope-specific T cell expansion, as measured by HLA class II tetramer (Tmr) staining of peripheral blood mononuclear cells (PBMC) from HLA-DRB1*04:01^+ subjects following 2 weeks of in vitro expansion (Table 1 and Supplemental Figure 1; supplemental material available online with this article; https://doi.org/10.1172/jci.insight.145217DS1).
Recombinant HLA-DRB1*04:01 protein was produced by the BRI Tetramer Core as previously described ([56]). Soluble HLA-DRB1*04:01 monomer was purified from insect cell culture supernatants and biotinylated at a sequence-specific site using biotin ligase (Avidity) prior to dialysis into phosphate storage buffer. The biotinylated monomer was loaded with 0.2 mg/mL of peptide by incubating at 37°C for 72 hours in the presence of 2.5 mg/mL n-octyl β-D-glucopyranoside and 1 mM Pefabloc SC (Sigma-Aldrich). Peptide-loaded monomers were conjugated into Tmrs using fluorescently labeled streptavidin (Invitrogen) for 6–18 hours at room temperature at a molar ratio of 8:1.
Cryopreserved PBMCs from RA and healthy subjects were cultured at 5 × 10^6 cells/well in a 48-well plate in RPMI-1640 + 10% HPS with 10 μg/mL of peptide. IL-2 (Novartis) was added at 325 IU/mL on day 6. On day 14, cells were stained for expression of Tmr-PE, CD25 APC (BD Biosciences), and CD4 FITC (BioLegend) (Supplemental Table 8) and then run on a FACSCanto. The data were analyzed by FlowJo software version 10.

[5] = test system: CD4+ memory T cells in peripheral blood; assay: Ex vivo detection of peptide-specific memory CD4+ T cells by multiplex HLA class II tetramer staining; format: cell-based, human; settings: for Frequencies of peptide-specific memory CD4+ T cells: mean ± SEM, SEM
HLA-DRB1*04:01 = HLA-DRB1*04:01 (Homo sapiens, UniProt P01903+P01911, A100K/A169T/F76Y/I96L/K127E/L162R/M171V/N62H/P40V/Q125Y/R42H/S133A/S149N/S66Y/V115G/V209L/W38E); assay: Peptide competition binding assay to HLA-DRB1*04:01
[6] = Autoantibody Cohort 1: HLA-DRB1*04:01, CCP+ RA sera (n = 17), diluted 1:100, cut-off 98th percentile of HC
[7] = Autoantibody Cohort 2, CCP+ RA (n = 55)
[8] = Autoantibody Cohort 2, CCP– RA (n = 43)

Row | Molecule | Percentage of subjects seropositive for antibodies to peptide [1, 6] [%] | IFN-γ secretion by SFMC (in words) [3] | Responders (% in RA) [4] [%] | Immunogenicity [4] | Percentages of subjects with a detectable ex vivo response ([5]; Healthy control subjects (n=7)) [%] | Frequencies of peptide-specific memory CD4+ T cells ([5]; Healthy control subjects (n=7)) | Percentages of subjects with a detectable ex vivo response ([5]; RA subjects (n=9)) [%] | Frequencies of peptide-specific memory CD4+ T cells ([5]; RA subjects (n=9)) | EC50 (HLA-DRB1*04:01) [nM] | also measured
1 | CQGQYEL[Cit]VDL[Cit]DHGETAFC [cit-TNC56, Cys-flanked citrullinated TNC56 peptide used in ELISA] | 53 | elicited IFN-γ secretion by SFMC | – | – | – | – | – | – | – | Percentage of subjects seropositive for antibodies to peptide [1, 7]: 45.5%; Percentage of subjects seropositive for antibodies to peptide [1, 8]: 11.6%; Absorption by the homologous peptide (in words) [2]: efficient; maximum inhibition ([2]; serum 2, cit-TNC56 versus cit-TNC17, sera 1:100, 1, 10 and 100 μg/mL peptide, 2 hours): 24.8%; maximum inhibition ([2]; serum 2, cross-reactivity between cit-TNC56 and cit-TNC5): 38.7%; maximum inhibition ([2]; serum 6, citTNC56 versus cit-TNC17, sera 1:100, 1, 10 and 100 μg/mL peptide, 2 hours): 43%; IL-17 production by SFMC (in words) [3]: produced
2 | CC[C@H](C)[C@H](NC(=O)[C@H](CCCNC(N)=O)NC(=O)[C@H](Cc1ccccc1)NC(=O)[C@H](CO)NC(=O)[C@H](CCC(=O)O)NC(=O)[C@@H](N)C(C)C)C(=O)N[C@H](C(=O)N[C@@H](Cc1ccc(O)cc1)C(=O)N[C@H](C(=O)N1CCC[C@H]1C(=O)N[C@H](C(=O)N[C@H](C(=O)NCC(=O)NCC(=O)N[C@H](C(=O)O)[C@@H](C)O)[C@@H](C)O)[C@@H](C)CC)C(C)C)[C@@H](C)O [TNC50] (H-VESF[Cit]ITYVPITGGT-OH) | – | – | 50 | Yes | 71 | 1.5±0.6 /million memory CD4+ T cells | 100 | 9.6±3.1 /million memory CD4+ T cells | 1000 | –
3 | CVSDATPDGF[Cit]LSWTADEGC [cit-TNC45, Cys-flanked citrullinated TNC45 peptide used in ELISA] | 29 | elicited IFN-γ secretion by SFMC | – | – | – | – | – | – | – | –
4 | CC(C)C[C@H](NC(=O)[C@H](CCCNC(N)=O)NC(=O)[C@H](Cc1ccccc1)NC(=O)CNC(=O)[C@H](CC(=O)O)NC(=O)[C@@H]1CCCN1)C(=O)N[C@@H](CO)C(=O)N[C@@H](Cc1c[nH]c2ccccc12)C(=O)N[C@H](C(=O)N[C@@H](C)C(=O)N[C@@H](CC(=O)O)C(=O)N[C@@H](CCC(=O)O)C(=O)NCC(=O)N[C@H](C(=O)N[C@@H](Cc1ccccc1)C(=O)O)C(C)C)[C@@H](C)O [TNC45] (H-PDGF[Cit]LSWTADEGVF-OH) | – | – | 50 | Yes | 71 | 2.6±1.0 /million memory CD4+ T cells | 100 | 22.6±6.4 /million memory CD4+ T cells | 17100 | –
5 | CEHSIQFAEMKL[Cit]PSNF[Cit]NLEG[Cit][Cit]KRC (cysteine pairing not given here) [cit-TNC5, previously published cit-TNC5 peptide, positive control in antibody ELISA, reference compound] | 47 | – | – | – | – | – | – | – | – | –
6 | CC(C)C[C@H](NC(=O)[C@H](CCCNC(N)=O)NC(=O)[C@H](Cc1ccc(O)cc1)NC(=O)[C@H](CCCNC(N)=O)NC(=O)[C@H](CC(=O)O)NC(=O)[C@@H](N)Cc1ccccc1)C(=O)N[C@@H](CC(N)=O)C(=O)N[C@@H](Cc1ccc(O)cc1)C(=O)N[C@@H](CO)C(=O)N[C@@H](CC(C)C)C(=O)N1CCC[C@H]1C(=O)N[C@H](C(=O)NCC(=O)N[C@@H](CCC(N)=O)C(=O)N[C@@H](Cc1c[nH]c2ccccc12)C(=O)O)[C@@H](C)O [TNC22] (H-FD[Cit]Y[Cit]LNYSLPTGQW-OH) | – | – | 46 | Yes | 71 | 3.0±1.2 /million memory CD4+ T cells | 56 | 3.8±1.9 /million memory CD4+ T cells | 700 | –
7 | CPTAQVESF[Cit]ITYVPITGGC [cit-TNC50, Cys-flanked citrullinated TNC50 peptide used in ELISA] | – | – | – | – | – | – | – | – | – | IL-17 production by SFMC (in words) [3]: produced
8 | CTPLAKFD[Cit]Y[Cit]LNYSLPTGC [cit-TNC22, Cys-flanked citrullinated TNC22 peptide used in ELISA] | 35 | elicited IFN-γ secretion by SFMC | – | – | – | – | – | – | – | IL-10 production by SFMC (in words) [3]: produced
9 | CEYEVSLIS[Cit][Cit]GDMSSNPAC [cit-TNC17, Cys-flanked citrullinated TNC17 peptide used for detection of antibodies by ELISA] | 100 | elicited IFN-γ secretion by SFMC | – | – | – | – | – | – | – | Percentage of subjects seropositive for antibodies to peptide [1, 7]: 63.6% and 64%; Percentage of subjects seropositive for antibodies to peptide [1, 8]: 2.3%; Cross-reactivity with cit-TNC5 (in words) ([2]; double-reactive sera): no cross-reactivity; Absorption by the homologous peptide (in words) [2]: efficient; maximum inhibition ([2]; serum 6, cit-TNC17 versus cit-TNC56, sera 1:100, 1, 10 and 100 μg/mL peptide, 2 hours): 22%; IL-10 production by SFMC (in words) [3]: produced
